Measured values taken from US8501804B2, “Bicyclic compound” (Takeda Pharmaceutical Company Limited, priority 2008, dated 2013).

Tests used:
[1] = target: T1, human ACC2 (Nd) (Homo sapiens, UniProt O00763); assay: ACC2 inhibitory activity (malachite green); format: biochemical; settings: test compound 10 μM; for inhibition at 10 µM: read-out: ACC2 10 μM inhibitory rate (%)
T1 construct: His6 (from vector pFAST-BacHTa); made in house; host or cells: SF-9 insect cells, recombinant baculovirus BAC-ACC2 (Nd)
Protocol: The ACC2 inhibitory action of the compound of the present invention was evaluated by the following method.
(1) Cloning of Human ACC2 Gene and Preparation of Recombinant Baculovirus
(§1) Human ACC2 gene was cloned by PCR using a human skeletal muscle cDNA library (Clontech) as a template and Primer 1 and Primer 2 shown below. Primer 1 and Primer 2 were prepared by adding SalI, XbaI restriction enzyme recognition sequences based on the information of the base sequence of human ACC2 gene (Genbank Accession U89344).
(§2) PCR was performed using Pyrobest DNA polymerase (TAKARA BIO INC.). The obtained PCR product was cloned to pT7 Blue vector (Novagen) and, after confirmation of the base sequence, digested with restriction enzymes SalI and XbaI. The obtained DNA fragment was inserted into pFAST-BacHTa (Invitrogen) digested with restriction enzymes SalI and XbaI to give expression plasmid ACC2/pFAST-BacHTa.
A plasmid for expression of ACC2 without a mitochondrial targeting sequence was prepared by PCR using the expression plasmid as a template, and Primer 3 (SalI restriction enzyme recognition sequence was added) and Primer 4 prepared by reference to the information of human ACC2 gene base sequence (Genbank Accession U89344).
as §2, with “Pyrobest-DNA” for “Pyrobest DNA”, “AflII.” for “XbaI.”, “ACC2/pFAST-BacHTa” for “pFAST-BacHTa (Invitrogen)”, “AflII” for “XbaI”, “ACC2mito7/pFAST-BacHTa.” for “ACC2/pFAST-BacHTa.”
Using the expression plasmid ACC2mito7/pFAST-BacHTa and BAC-TO-BAC Baculovirus Expression System (Invitrogen), virus stock BAC-ACC2 of recombinant Baculovirus (N terminal deleted (hereinafter Nd)) was prepared.
(2) Preparation of ACC2 (Nd) Protein
SF-9 cells (Invitrogen) were inoculated to a medium (2 L) for insect cells (Sf-900IISFM medium (Invitrogen) containing 10% fetal bovine serum (Trace), 50 mg/L Gentamicin (Invitrogen), 0.1% Pluronic F-68 (Invitrogen)) at 0.5×10^6 cells/mL, and cultured with shaking in Wave Bioreactor (Wave) at 27° C., 20 rpm, rocking angle 6°, oxygen concentration 30%.
On day 4 of the culture, 3 L of the medium for insect cells was added, the rocking angle was set to 8°, and the cells were cultured. On day 5 of the culture, 100 ml of recombinant Baculovirus BAC-ACC2 (Nd) was added, 5 L of the medium for insect cells was further added, the rocking angle was set to 11°, and the cells were cultured for 3 days. The culture medium was centrifuged at 1000×g for 10 min to give virus-infected cells. The cells were washed with phosphate buffered saline (Invitrogen) and centrifuged under the same conditions. The obtained cells were cryopreserved at −80° C.
The cryopreserved cells were thawed in ice and suspended in 900 ml of 25 mM HEPES buffer (pH 7.5) containing 10% Glycerol, 0.13 M NaCl, 1 mM EDTA, 25 mM Sodium β-Glycerophosphate and 1 mM Sodium Orthovanadate, and supplemented with Complete Protease Inhibitor (Nippon Boehringer Ingelheim Co., Ltd.). The obtained suspension was homogenized three times in a polytron homogenizer (Kinematica) at 20,000 rpm for 30 sec. The obtained cell disruption solution was clarified by centrifugation at 31000×g for 60 min, and filtered through a 0.45 μm filter. The filtrate was passed through a column packed with 60 mL of Ni-NTA Super Flow Gel (QUIAGEN) at a flow rate of about 5 mL/min. The column was washed with buffer A (50 mM HEPES (pH 7.5) containing 0.3 M NaCl), further washed with buffer A containing 20 mM Imidazole, and eluted with buffer A containing 100 mM Imidazole. The eluate was concentrated with Vivaspin 20 (Vivascience) with a molecular weight cut off of 30K. The obtained concentrate was dialyzed against 50 mM HEPES (pH 7.5) containing 10 mM MgCl2, 2 mM Dithiothreitol, 10 mM Tripotassium Citrate and 0.3 M NaCl. The inner dialysate was filtered through a 0.22 μm filter to give ACC2 (Nd). […]

[2] = target: T2, human ACC1 (Homo sapiens, UniProt Q13085); assay: ACC1 inhibitory activity (malachite green); format: biochemical; settings: test compound 10 μM; for inhibition at 10 µM: read-out: ACC1 10 μM inhibitory rate (%)
T2 construct: His6 (from vector pFAST-BacHTc); made in house; host or cells: SF-9 insect cells, recombinant baculovirus BAC-ACC1
Protocol: The ACC1 inhibitory action of the compound of the present invention was evaluated by the following method.
(1) Cloning of Human ACC1 Gene and Preparation of Recombinant Baculovirus
as §1, with “ACC1” for “ACC2”, “liver” for “skeletal muscle”, “NotI” for “XbaI”, “U19822).” for “U89344).”
as §2, with “NotI.” for “XbaI.”, “pFAST-BacHTc” for “pFAST-BacHTa”, “NotI” for “XbaI”, “ACC1/pFAST-BacHTc.” for “ACC2/pFAST-BacHTa.”
Using the expression plasmid ACC1/pFAST-BacHTc and BAC-TO-BAC Baculovirus Expression System (Invitrogen), virus stock BAC-ACC1 of recombinant Baculovirus was prepared.
(2) Preparation of ACC1 Protein
SF-9 cells (Invitrogen) were inoculated to a medium (1 L) for insect cells (Sf-900IISFM medium (Invitrogen) containing 10% fetal bovine serum (Trace), 50 mg/L Gentamicin (Invitrogen), 0.1% Pluronic F-68 (Invitrogen)) at 1×10^6 cells/mL, and cultured with shaking in 2 L meyer at 27° C., 100 rpm.
After 24 hr of the culture, 10 mL of recombinant Baculovirus BAC-ACC1 was added, and the cells were cultured for 3 days. The culture medium was centrifuged at 1000×g for 5 min to give virus-infected cells. The cells were washed with phosphate buffered saline (Invitrogen) and centrifuged under the same conditions. The obtained cells were cryopreserved at −80° C.
The cryopreserved cells were thawed in ice and suspended in 100 mL of 25 mM HEPES buffer (pH 7.5) containing 10% Glycerol, 0.13 M NaCl, 1 mM EDTA, 25 mM Sodium […] and 1 mM Sodium Orthovanadate, and supplemented with Complete Protease Inhibitor (Nippon Boehringer Ingelheim Co., Ltd.). The obtained suspension was homogenized three times in a polytron homogenizer (Kinematica) at 20,000 rpm for 30 sec. The obtained cell disruption solution was clarified by centrifugation at 185700×g for 50 min, and filtered through a 0.45 μm filter. The filtrate was passed through a column packed with 12 ml of Ni-NTA Super Flow Gel (QUIAGEN) at a flow rate of about 5 mL/min. The column was washed with buffer A (50 mM HEPES (pH 7.5) containing 0.3 M NaCl), further washed with buffer A containing 20 mM Imidazole, and eluted with buffer A containing 100 mM Imidazole. The eluate was concentrated with Vivaspin 20 (Vivascience) with a molecular weight cut off of 30K. The obtained concentrate was dialyzed against Sephadex G-25 (Amersham Biosciences, 358 mL) equilibrated with 50 mM HEPES (pH 7.5) containing 10 mM MgCl2, 2 mM Dithiothreitol, 10 mM Tripotassium Citrate and 0.3 M NaCl. The inner dialysate was concentrated with Vivaspin 20 (Vivascience) with molecular weight cut off of 30K, and concentrate was filtered through a 0.22 μm filter to give ACC1. The obtained ACC1 was cryopreserved at −80° C.
(3) Measurement of ACC1 Inhibitory Activity
ACC1 (0.93 mg/ml) obtained in the above-mentioned (2) was diluted with an enzyme reaction buffer (50 mM HEPES (pH 7.5), 10 mM MgCl2, 10 mM Tripotassium Citrate, 2 mM Dithiothreitol, 0.75 mg/ml Fatty acid free BSA) to a concentration of 8 μg/ml, and the mixture was added to each well of a 384 well assay plate (Nunc 265196) by 10 μl. A test compound was dissolved in dimethyl sulfoxide (DMSO) and the mixture was diluted with an enzyme reaction buffer and the resulting solution (5 μl) was added to each well. The mixture was incubated at 30° C. for 60 min. Then, a substrate solution (50 mM KHCO3, 200 μM ATP, 200 μM Acetyl-CoA, 5 μl) was added to each well, and the mixture was reacted at 30° C. for 20 min (test compound addition group). […]

T1 sequence (O00763 117-2458 limits assumed): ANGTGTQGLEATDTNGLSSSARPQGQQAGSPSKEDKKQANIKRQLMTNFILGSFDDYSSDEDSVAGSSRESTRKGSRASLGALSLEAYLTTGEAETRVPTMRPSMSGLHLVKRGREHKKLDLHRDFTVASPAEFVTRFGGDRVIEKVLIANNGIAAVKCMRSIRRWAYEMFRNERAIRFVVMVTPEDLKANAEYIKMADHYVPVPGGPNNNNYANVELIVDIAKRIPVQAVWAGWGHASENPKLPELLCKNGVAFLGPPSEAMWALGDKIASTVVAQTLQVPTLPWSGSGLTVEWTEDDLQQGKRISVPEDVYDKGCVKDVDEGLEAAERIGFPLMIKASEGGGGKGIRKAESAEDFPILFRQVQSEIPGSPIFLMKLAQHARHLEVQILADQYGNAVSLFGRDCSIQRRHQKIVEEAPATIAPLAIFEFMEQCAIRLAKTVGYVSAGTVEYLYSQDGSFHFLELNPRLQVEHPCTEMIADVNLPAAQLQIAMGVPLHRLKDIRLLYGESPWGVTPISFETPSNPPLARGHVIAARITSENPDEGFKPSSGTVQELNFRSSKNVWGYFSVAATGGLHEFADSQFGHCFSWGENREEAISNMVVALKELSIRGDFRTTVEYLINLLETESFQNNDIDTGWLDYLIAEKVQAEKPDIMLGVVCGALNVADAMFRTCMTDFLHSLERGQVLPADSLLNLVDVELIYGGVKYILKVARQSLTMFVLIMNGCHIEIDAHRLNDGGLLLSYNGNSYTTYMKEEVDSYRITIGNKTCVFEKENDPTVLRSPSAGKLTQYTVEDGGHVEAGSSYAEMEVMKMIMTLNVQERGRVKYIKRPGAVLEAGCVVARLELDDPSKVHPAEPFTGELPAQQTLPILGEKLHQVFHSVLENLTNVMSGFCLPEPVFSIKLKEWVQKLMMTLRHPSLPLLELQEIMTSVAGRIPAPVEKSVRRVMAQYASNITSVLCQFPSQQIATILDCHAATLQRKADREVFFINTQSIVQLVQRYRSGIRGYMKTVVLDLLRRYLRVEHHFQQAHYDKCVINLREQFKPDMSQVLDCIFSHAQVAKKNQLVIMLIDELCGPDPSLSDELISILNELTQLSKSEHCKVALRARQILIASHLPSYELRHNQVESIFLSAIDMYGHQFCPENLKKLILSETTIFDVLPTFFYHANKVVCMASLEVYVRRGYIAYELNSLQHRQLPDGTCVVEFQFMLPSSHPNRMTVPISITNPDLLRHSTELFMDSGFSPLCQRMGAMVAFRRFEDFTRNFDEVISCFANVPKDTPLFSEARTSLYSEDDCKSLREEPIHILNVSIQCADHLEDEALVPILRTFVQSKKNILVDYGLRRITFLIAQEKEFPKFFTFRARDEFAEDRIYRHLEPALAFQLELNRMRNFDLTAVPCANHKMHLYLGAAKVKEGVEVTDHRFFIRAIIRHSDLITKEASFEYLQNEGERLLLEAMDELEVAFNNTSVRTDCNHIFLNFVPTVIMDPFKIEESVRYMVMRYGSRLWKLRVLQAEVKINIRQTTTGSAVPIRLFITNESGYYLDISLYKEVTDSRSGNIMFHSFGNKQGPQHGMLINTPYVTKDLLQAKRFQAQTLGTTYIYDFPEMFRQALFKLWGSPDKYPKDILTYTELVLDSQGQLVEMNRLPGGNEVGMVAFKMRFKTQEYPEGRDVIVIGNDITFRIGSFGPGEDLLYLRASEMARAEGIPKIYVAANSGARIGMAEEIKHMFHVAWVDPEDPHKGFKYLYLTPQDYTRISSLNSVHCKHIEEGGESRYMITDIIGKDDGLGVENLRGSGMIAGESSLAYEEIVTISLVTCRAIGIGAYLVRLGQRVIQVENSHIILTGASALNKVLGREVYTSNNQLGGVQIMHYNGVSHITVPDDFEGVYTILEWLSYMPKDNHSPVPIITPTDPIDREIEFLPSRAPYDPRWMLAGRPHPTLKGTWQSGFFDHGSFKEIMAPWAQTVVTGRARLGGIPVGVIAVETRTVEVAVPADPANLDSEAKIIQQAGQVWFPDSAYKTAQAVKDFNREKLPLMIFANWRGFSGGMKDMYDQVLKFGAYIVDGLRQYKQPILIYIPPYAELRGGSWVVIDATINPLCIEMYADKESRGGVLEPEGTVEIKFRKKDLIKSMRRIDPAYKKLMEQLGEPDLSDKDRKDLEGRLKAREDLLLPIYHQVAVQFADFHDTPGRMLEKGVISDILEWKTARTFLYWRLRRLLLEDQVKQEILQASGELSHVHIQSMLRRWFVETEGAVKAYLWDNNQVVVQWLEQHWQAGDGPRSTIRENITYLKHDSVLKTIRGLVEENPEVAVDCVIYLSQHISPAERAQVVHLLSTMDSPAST

ACC2 10 μM inhibitory rate (%) [1]	ACC1 10 μM inhibitory rate (%) [2]	inhibition at 10 µM [1]	inhibition at 10 µM [2]	Structure (SMILES)
86%	51%	–	–	CC(=O)N[C@@H](C)[C@@H]1Cc2ccc(C#Cc3ccc(OCC4CC4)cc3)cc2O1.CC(=O)N[C@H](C)[C@H]1Cc2ccc(C#Cc3ccc(OCC4CC4)cc3)cc2O1 (mixture of isomers) [Example 129 (retention time longer), N-{(1R)-1-[(2R)-6-{[4-(cyclopropylmethoxy)phenyl]ethynyl}-2,3-dihydro-1-benzofuran-2-yl]ethyl}acetamide and N-{(1S)-1-[(2S)-6-{[4-(cyclopropylmethoxy)phenyl]ethynyl}-2,3-dihydro-1-benzofuran-2-yl]ethyl}acetamide]
62%	25%	–	–	CC(=O)N[C@@H](C)[C@@H]1Cc2ccc(CCc3ccc(OCC4CC4)cc3)cc2O1.CC(=O)N[C@H](C)[C@H]1Cc2ccc(CCc3ccc(OCC4CC4)cc3)cc2O1 (mixture of isomers) [Example 130 (retention time longer), N-{(1R)-1-[(2R)-6-{2-[4-(cyclopropylmethoxy)phenyl]ethyl}-2,3-dihydro-1-benzofuran-2-yl]ethyl}acetamide and N-{(1S)-1-[(2S)-6-{2-[4-(cyclopropylmethoxy)phenyl]ethyl}-2,3-dihydro-1-benzofuran-2-yl]ethyl}acetamide]
–	–	78%	30%	CC(=O)N[C@H](C)[C@H]1Cc2ccc(C#Cc3ccc(OCC4CC4)cc3)cc2O1 (racemic) [Example 111, 1:1 mixture of N-{(1R)-1-[(2R)-6-{[4-(cyclopropylmethoxy)phenyl]ethynyl}-2,3-dihydro-1-benzofuran-2-yl]ethyl}acetamide and N-{(1S)-1-[(2S)-6-[([4-(cyclopropylmethoxy)phenyl]ethynyl]-2,3-dihydro-1-benzofuran-2-yl]ethyl}acetamide]
–	–	73%	35%	CC(=O)N[C@H](C)[C@H]1Cc2ccc(CCc3ccc(OCC4CC4)cc3)cc2O1 (racemic) [Example 121, 1:1 mixture of N-{(1R)-1-[(2R)-6-{2-[4-(cyclopropylmethoxy)phenyl]ethyl}-2,3-dihydro-1-benzofuran-2-yl]ethyl}acetamide and N-{(1S)-1-[(2S)-6-{2-[4-(cyclopropylmethoxy)phenyl]ethyl}-2,3-dihydro-1-benzofuran-2-yl]ethyl}acetamide]
–	–	85%	15%	CCOc1ccc(COc2ccc3oc(C(C)NC(C)=O)cc3c2)cc1 (stereo not shown) [Example 18, N-(1-{5-[(4-ethoxybenzyl)oxy]-1-benzofuran-2-yl}ethyl)acetamide]
–	–	78%	24%	CCOc1ccc(COc2ccc3cc(C(C)NC(C)=O)sc3c2)cc1 (stereo not shown) [Example 19, N-(1-{6-[(4-ethoxybenzyl)oxy]-1-benzothiophen-2-yl}ethyl)acetamide]
83%	23%	–	–	CCOc1ccc(CCc2ccc3cc(C(C)NC(C)=O)oc3c2)cc1 (stereo not shown) [Example 20, N-(1-{6-[2-(4-ethoxyphenyl)ethyl]-1-benzofuran-2-yl}ethyl)acetamide]
76%	18%	–	–	CCOc1ccc(COc2ccc3oc(C(C)NC(C)=O)cc3c2)cc1 (stereo not shown) [Example 27, optically active forms (two kinds) of N-(1-{5-[(4-ethoxybenzyl)oxy]-1-benzofuran-2-yl}ethyl)acetamide]
–	–	81%	19%	CCOc1ccc(COc2ccc3oc(C(C)NC(C)=O)cc3c2)c(Cl)c1 (stereo not shown) [Example 28, N-(1-{5-[(2-chloro-4-ethoxybenzyl)oxy]-1-benzofuran-2-yl}ethyl)acetamide]
–	–	84%	36%	CCCOc1ccc(CCc2ccc3cc(C(C)NC(C)=O)oc3c2)cc1 (stereo not shown) [Example 32, N-(1-{6-[2-(4-propoxyphenyl)ethyl]-1-benzofuran-2-yl}ethyl)acetamide]
–	–	77%	-4%	CCOc1ccc(OCc2ccc3sc(C(C)NC(C)=O)nc3c2)cc1 (stereo not shown) [Example 37, N-(1-{5-[(4-ethoxyphenoxy)methyl]-1,3-benzothiazol-2-30 yl}ethyl)acetamide]
